Series [1] concerns CSABP gene expression in MH14 cells. Kind of series: Effect of anti-methylating agent on gene expression in MH14 cells (RT-PCR). It counts as cell-based, human. The following applies: MH14 cells, 0.1, 0.5, 1.0 μM, 4 days. The procedure:
10^5 cells/well of MH14 cells (liver cancer cell line) were precultured in a 6 well plate with MH14 cell culture medium for 24 hours, and 5-aza-2′-deoxycytidine (Sigma) was then added thereto. Subsequently, medium exchange was carried out every 24 hours with a medium to which the methylation inhibitor had been added, and the cells were collected after 4 days. The amount of 5-aza-2′-deoxycytidine added was 0, 0.1, 0.5, and 1.0 μM. Total RNA was recovered from the cells thus collected in accordance with a standard method using an RNeasy kit (Qiagen, Cat. 74104). This total RNA was subjected to a reverse transcription reaction in accordance with a standard method using a Transcriptor First Strand cDNA Synthesis Kit (Roche, Cat. 04379012001), and the cDNA thus obtained was used as a template. The primer employed the above-mentioned CSABP primer (SEQ ID Nos: 5 and 6), and a PCR reaction was carried out in a Gotaq® PCR system (Promega) at 95° C., 5 minutes×1 cycle, 95° C., 0.5 minutes, 55° C., 0.5 minutes, 72° C., 2.5 minutes×35 cycles, 72° C., 7 minutes×1 cycle. As a positive control, a reaction was carried out in the same manner using the RASSF1A primers RASSF1A transcript variant D 391 to 415 forward primer: 5′-[…]-3′ (SEQ ID No: 38) and RASSF1A transcript variant D 635 to 660 reverse primer: 5′-[…]-3′ (SEQ ID No: 39), which is a gene for which a relationship between expression and DNA methylation in a promoter region has been shown by Cui X et al., Hum Pathol. 2006; 37 (3): 298-311. As an internal control, a reaction was carried out in the same manner using the above-mentioned G6PDH primer (SEQ ID Nos: 20 and 21).

The target in series [2] is T1, recombinant full length CSABP protein (CSABP-FL) (Homo sapiens, UniProt Q9H6S0, S652N/T565S).
T1 construct: pET-CSABP-FL and pET-CSABP-C (FL=full length, C=C terminal region (CSABP ORF: 193rd to 1430th amino acids)); made in house; host or cells: E. coli BL21 (DE3)
T1 sequence (Q9H6S0 1-1430 T565S/S652N): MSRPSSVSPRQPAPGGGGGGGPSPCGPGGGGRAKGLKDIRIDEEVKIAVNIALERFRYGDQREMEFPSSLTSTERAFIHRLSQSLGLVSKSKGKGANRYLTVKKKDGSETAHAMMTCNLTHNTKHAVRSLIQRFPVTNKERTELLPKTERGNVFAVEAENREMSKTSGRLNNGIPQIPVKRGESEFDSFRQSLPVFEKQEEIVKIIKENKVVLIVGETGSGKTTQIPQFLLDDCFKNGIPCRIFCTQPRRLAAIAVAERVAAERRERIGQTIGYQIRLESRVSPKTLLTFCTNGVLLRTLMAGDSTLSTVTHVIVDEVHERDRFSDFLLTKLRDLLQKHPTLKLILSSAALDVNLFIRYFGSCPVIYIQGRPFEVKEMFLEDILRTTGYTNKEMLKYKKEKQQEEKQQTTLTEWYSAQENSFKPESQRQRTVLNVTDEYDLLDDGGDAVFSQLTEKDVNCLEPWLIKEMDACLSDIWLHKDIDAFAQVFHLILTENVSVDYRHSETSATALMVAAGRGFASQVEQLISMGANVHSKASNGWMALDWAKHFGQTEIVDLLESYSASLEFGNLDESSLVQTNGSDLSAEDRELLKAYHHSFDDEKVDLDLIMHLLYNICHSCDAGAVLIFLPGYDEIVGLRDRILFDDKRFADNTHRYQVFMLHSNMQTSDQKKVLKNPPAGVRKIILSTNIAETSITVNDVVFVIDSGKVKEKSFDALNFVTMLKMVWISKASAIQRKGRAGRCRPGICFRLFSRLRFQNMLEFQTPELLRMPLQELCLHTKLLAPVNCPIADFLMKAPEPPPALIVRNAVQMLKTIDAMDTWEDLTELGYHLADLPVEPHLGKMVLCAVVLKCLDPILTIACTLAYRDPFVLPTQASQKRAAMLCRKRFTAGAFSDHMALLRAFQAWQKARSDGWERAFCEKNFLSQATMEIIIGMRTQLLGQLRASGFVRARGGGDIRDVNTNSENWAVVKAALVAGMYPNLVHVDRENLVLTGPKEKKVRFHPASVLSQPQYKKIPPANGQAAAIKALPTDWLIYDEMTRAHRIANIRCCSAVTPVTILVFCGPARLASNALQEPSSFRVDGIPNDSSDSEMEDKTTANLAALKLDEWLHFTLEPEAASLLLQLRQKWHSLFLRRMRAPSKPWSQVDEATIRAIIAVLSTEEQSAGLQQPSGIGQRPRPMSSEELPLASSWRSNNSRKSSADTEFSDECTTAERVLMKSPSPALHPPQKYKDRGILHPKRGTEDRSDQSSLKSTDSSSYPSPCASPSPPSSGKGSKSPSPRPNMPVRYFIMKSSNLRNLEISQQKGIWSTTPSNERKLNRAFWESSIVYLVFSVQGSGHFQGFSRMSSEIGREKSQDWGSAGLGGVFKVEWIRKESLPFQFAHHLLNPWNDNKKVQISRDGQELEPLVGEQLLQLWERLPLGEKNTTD
Put plainly: Molecular association with CSABP by SPR (Biacore 3000). As to conditions: read-out: dissociation constant KD with CSABP. It counts as binding. As to the method: Molecular association between recombinant full length CSABP protein (CSABP-FL) and CsA was evaluated by an SPR (surface plasmon resonance) method. SPR measurement employed Biacore 3000 (Biacore). A purified recombinant CSABP protein was immobilized on Biacore chip CM5 by an amine coupling method (amount immobilized about 10000).
Background: Surface plasmon resonance follows binding to a sensor surface in real time, without labels.

For series [3], the system named is CSABP expression in normal human liver cells. Kind of series: Induction of CSABP expression by inflammatory cytokine in normal human liver cells (real time PCR). It counts as cell-based. The following applies: 8 hours. The procedure: Normal human liver cells (Primary Human Liver Hepatocyte Cells, DS PHARMA BIOMEDICAL CO., LTD., Cat. No. ABI-3716) were cultured in a 6 well plate at a density of 2×10^5 cells/well, and human IL-1β, TNFα, or IL-6 (all from BioSource) was added thereto to give a final concentration in the well of 1 pg/mL, 100 pg/mL, or 1 ng/mL respectively. 8 hours after the addition, the cells were collected, and expression of CSABP within the cells was quantitatively determined by real time PCR in the same manner as in Example 5 (2).

With `Nc1ncn([C@H]2C[C@H](O)[C@@H](CO)O2)c(=O)n1` [5-aza-2′-deoxycytidine], in series [1], the “amount of expression of the CSABP gene” value is “increase”, the cytotoxicity result is “no cytotoxicity was observed” and the “expression of RASSF1A (positive control gene)” value is reported as “increased”.

For orientation: Kd means the constant that tells how readily two partners part at equilibrium. As for `C=CC[C@@H]1/C=C(\C)C[C@H](C)C[C@H](OC)[C@H]2O[C@@](O)(C(=O)C(=O)N3CCCC[C@H]3C(=O)O[C@H](/C(C)=C/[C@@H]3CC[C@@H](O)[C@H](OC)C3)[C@H](C)[C@@H](O)CC1=O)[C@H](C)C[C@@H]2OC` [FK506], the Kd in series [2] stood at 2500 nM.

On to “IL-6: human inflammatory cytokine (BioSource)”, for which the “amount of expression of CSABP compared with the control” value (“amount … compared with the control” for short) in series [3] (1 ng/mL) is listed as “some increase”.

For the compound TNF-α, in series [3] (100 pg/mL), the “amount … compared with the control” value is “about 1.8 times”.

For the compound “IL-1β: human inflammatory cytokine (BioSource)”, the “amount … compared with the control” value in series [3] (1 pg/mL) is recorded as “some increase”.
